In US5356911A, “Substituted biphenylpyridones” (Bayer Aktiengesellschaft, priority 1991, dated 1994) one finds Ki, Blood pressure decrease and IC50 data, which are given here for 13 molecules.

In general, Ki refers to the equilibrium dissociation constant of an inhibitor or competing ligand from its target. Higher therefore signals weaker binding. The IC50 is the concentration needed to halve the response being measured.

Where a name gives a salt, the structure may show the parent alone.

One assay deals with T1, Angiotensin II receptor (Bos taurus, UniProt P25104).
T1 construct: Adrenal cortices of cattle (ACC), which have been freshly removed and carefully freed of gland medulla; from tissue; host or cells: bovine adrenal cortex, partially purified membrane fractions
T1 sequence (P25104 1-359): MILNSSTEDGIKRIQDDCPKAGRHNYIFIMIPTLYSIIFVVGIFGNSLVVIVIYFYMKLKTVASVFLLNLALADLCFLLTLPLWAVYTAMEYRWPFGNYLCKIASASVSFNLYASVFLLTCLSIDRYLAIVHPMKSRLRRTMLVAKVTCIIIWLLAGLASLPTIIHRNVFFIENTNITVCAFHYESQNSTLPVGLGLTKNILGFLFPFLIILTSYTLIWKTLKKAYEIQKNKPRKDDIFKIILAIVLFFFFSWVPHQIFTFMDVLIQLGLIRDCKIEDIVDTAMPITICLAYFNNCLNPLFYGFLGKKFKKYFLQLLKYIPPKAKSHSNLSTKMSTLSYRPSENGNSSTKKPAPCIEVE
Put plainly: Inhibition of specific binding of 3H-angiotensin II to the angiotensin II receptor on membrane fractions of the adrenal cortex. The arrangement: species or system cattle (bovine). The settings on record: 3H-angiotensin II (3-5 nM), bovine adrenal cortex membranes, 60 min, room temperature. From the text:
Interaction of the Compounds According to the Invention With the Angiotensin II Receptor on Membrane Fractions of the Adrenal Cortex (Cattle)
Adrenal cortices of cattle (ACC), which have been freshly removed and carefully freed of gland medulla, are comminuted in sucrose solution (0.32M) with the aid of an Ultra-Turrax (Janke & Kunkel, Staufen i.B.) to give a coarse membrane homogenate and partially purified in two centrifugation steps to give membrane fractions. The investigations of receptor binding were carried out on partially purified membrane fractions of bovine ACC using radioactive angiotensin II in an assay volume of 0.25 ml, which in detail contains the partially purified membranes (50-80 μg), ^3 H-angiotensin II (3-5 nM), test buffer solution (50 mM tris, pH 7.2, 5 mM MgCl2 and the substances to be investigated. After an incubation time of 60 min at room temperature, the unbound radioactivity of the samples is separated by means of moistened glass fibre filters (Whatman GF/C) and the bound radioactivity is measured spectrophotometrically in a scintillation cocktail after washing the protein with ice-cold buffer solution (50 mM tris/HCl, pH 7.4, 5% PEG 6000). The analysis of the raw data was carried out using computer programs to give Ki and IC50 values (Ki: IC50 values corrected for the radioactivity used; IC50 values: concentration at which the substance to be investigated causes a 50% inhibition of the specific binding of the radioligand).

For assay [1], the system named is Angiotensin II-Infused Rat. Put plainly: Blood pressure measurements on the angiotensin II-infused rat. It counts as in vivo, Male Wistar rats. The settings on record: 0.3 mg/kg p.o.; angiotensin II infusion 0.3 μg/kg/min; anaesthetised rats. The method, then: Blood Pressure Measurements on the Angiotensin II-Infused Rat
Male Wistar rats (Moellegaard, Copenhagen, Denmark) having a body weight of 300-350 g are anaesthetised with thiopental (100 mg/kg i.p.). After tracheotomy, one catheter is inserted in the femoral artery for blood pressure measurement and one catheter is inserted in the femoral veins for angiotensin II infusion and one catheter for substance administration. After administration of the ganglionic blocker pentolinium (5 mg/kg i.v.), angiotensin II infusion (0.3 μg/kg/min) is started. As soon as the blood pressure values have reached a stable plateau, the test substances are administered either intravenously or orally as a suspension or solution in 0.5% tylose.

Assay [2] has as its system contraction of the isolated rabbit aorta induced by angiotensin II. Put plainly: Inhibition of the angiotensin II-induced vascular contraction of isolated rabbit aorta rings in vitro. It counts as cell-based. The settings on record: Oryctolagus cuniculus; isolated aorta rings of rabbits in vitro; based on 3rd = sub-maximal agonist concentration; read-out: IC50 for contractions induced by AII. The protocol: Investigation of the Inhibition of the Contraction Induced by Agonists
Rabbits of both sexes are stunned by a blow to the neck and bled out, or in some cases anaesthetised with Nembutal (about 60-80 mg/kg i.v.) and sacrificed by opening the thorax. The thorax aorta is removed, freed of adhering connective tissue, divided into 1.5 mm wide ring segments and individually transferred under an initial loading of about 3.5 g to 10 ml organ baths containing 95% O2, 5% CO2 -aerated Krebs-Henseleit nutrient solution adjusted to 37° C. and of the following composition: 119 mmol/l of NaCl; 2.5 mmol/l of CaCl2 ×2H2 O; 1.2 mmol/l of KH2 PO4; 10 mmol/l of glucose; 4.8 mmol/l of KCl; 1.4 mmol/l of MgSO4 ×7 H2 O and 25 mmol/l of NaHCO3.
The contractions are detected isometrically by Statham UC2 cells by means of bridge amplifiers (ifd Mulheim or DSM Aalen) and digitalised and analysed by means of an A/D converter (System 570, Keithley Munich). The agonist dose-response curves (DRC) are carried out hourly. With each DRC, 3 or 4 individual concentrations are applied to the baths at 4 min intervals. After the end of the DRC and subsequent washing-out cycles (16 times, in each case about 5 sec/min with the abovementioned nutrient solution), a 28-minute resting or incubation phase follows, in the course of which the contractions as a rule reach the starting value again.
The height of the 3rd DRC, in the normal case, is used as a reference quantity for the assessment of the test substance to be investigated in other passages, which is applied to the baths in the following DRCs in increasing dosage in each case at the start of the incubation time. Each aorta ring is in this way stimulated for the whole day, always with the same agonist.
For the calculation of the IC50 (concentration at which the substance to be investigated causes a 50% inhibition), the effect is in each case based on the 3rd=sub-maximal agonist concentration.
rings of rabbits in vitro
IC50 (g/ml) for contractions induced by: AII

The molecule `CCCCc1cc(COC)cc(=O)n1Cc1ccc(-c2ccccc2-c2nnn[nH]2)cc1` [LXXXII] gave a Ki on Angiotensin II receptor of 79 nM.

With `CCCCc1cc(C(=O)OCC)c(C#N)c(=O)n1Cc1ccc(-c2ccccc2-c2nnn[nH]2)cc1` [XLVII], the inhibition constant Ki on Angiotensin II receptor came out at 220 nM.

The molecule “6-Butyl-4-methoxycarbonyl-2-oxo-1-{[2'-(N-triphenylmethyl-tetrazol-5-yl)biphenyl-4-yl]methyl}-1,2-dihydropyridine [Example I]” gave a Blood pressure decrease in assay [1] of more than 50 mm Hg.

Molecule `N#Cc1c(C(=O)O)cc(C2CC2)n(Cc2ccc(-c3ccccc3-c3nnn[nH]3)cc2)c1=O` [XCIV] returned a Ki on Angiotensin II receptor of 42 nM.

Regarding `CCCCc1cc(C(=O)OCc2ccccc2)cc(=O)n1Cc1ccc(-c2ccccc2-c2nnn[nH]2)cc1` [XLIII], the concentration for half-maximal inhibition (IC50) in assay [2] turned out to be 39 nM.

For the molecule `CCCc1cc(C(N)=O)cc(=O)n1Cc1ccc(-c2ccccc2-c2nnn[nH]2)cc1` [Example LVI], the affinity at Angiotensin II receptor, expressed as Ki, was 9 nM.

With `CCCCc1cc(COC)cc(=O)n1Cc1ccc(-c2ccccc2-c2nnn[nH]2)cc1` [Example LV], the affinity on Angiotensin II receptor, expressed as Ki, was 15 nM.

As for `CCc1cc(CC)n(Cc2ccc(-c3ccccc3-c3nnn[nH]3)cc2)c(=O)c1C#N` [XXXIV], the Ki on Angiotensin II receptor was more than 10000 nM.

Consider `CCCCc1cc(C(N)=O)cc(=O)n1Cc1ccc(-c2ccccc2-c2nnn[nH]2)cc1` [XLV], for which the concentration for half-maximal inhibition (IC50) in assay [2] was found to be 3.7 nM.

On to `CCCCc1cc(CO)cc(=O)n1Cc1ccc(-c2ccccc2-c2nnn[nH]2)cc1` [LIV], for which the IC50 in assay [2] came out at 13 nM.

In the case of `CCCc1cc(C(=O)OC)cc(=O)n1Cc1ccc(-c2ccccc2-c2nnn[nH]2)cc1` [LXXVIII], in assay [2], the half-maximal inhibitory concentration (IC50) was 34 nM.

For the molecule `CCCCc1cccc(=O)n1Cc1ccc(-c2ccccc2-c2nnn[nH]2)cc1` [XXXIII], the IC50 in assay [2] worked out at 7.3 nM.

Regarding `CCCCc1cc(C(=O)O)cc(=O)n1Cc1ccc(-c2ccccc2-c2nnn[nH]2)cc1` [Example XCII, 6-Butyl-4-carboxy-2-oxo-1[(2'-tetrazol-5-yl-biphenyl-4-yl)methyl-1,2-dihydropyridinedisodium salt], the IC50 in assay [2] amounted to 120 nM.
